Source: PMC9738727, “Purification and Characterization of Novel Anti-MRSA Peptides Produced by Brevibacillus sp. SPR-20” (Molecules, 2022)
Ends that are not written are not given here.

How the values were obtained:
MRSA isolate 142 = test: microbe, parasite or virus in culture; assay type: cell-based, Staphylococcus aureus; details: isolate 142, 24 h
Protocol: (§1) The MIC and MBC of the purified peptides from SPR-20 were determined by broth microdilution assay following a standard guideline. S. aureus TISTR 517 and MRSA isolate 142, 1096, and 2468 as bacterial strains were cultured in MH agar at 37 °C for 18 h. […] The cells were then diluted to 5 × 10^6 CFU/mL using cation-adjusted Mueller Hinton broth (CAMHB). The diluted cell suspension (10 μL) was transferred to each well of a 96-well plate. The purified peptide in the total volume of 100 µL was added to each well to obtain the final concentrations between 0.5 and 64 µg/mL. The standard antibiotics (vancomycin and cefoxitin) (Sigma-Aldrich Co., St. Louis, MO, USA) and antibiotic-free samples were the positive and negative controls, respectively. CAMHB without tested bacteria was used as a blank. The 96-well plates were incubated at 37 °C for 24 h, and the experiment was performed in triplicate for each strain. […] Subsequently, 100 µL of each dilution was spread on MH agar and then incubated at 37 °C for 24 h.

S. aureus TISTR 517 [1] = test: microbe, parasite or virus in culture; assay type: cell-based, Staphylococcus aureus; details: TISTR 517, 24 h
Protocol: as §1

MRSA isolate 2468 [2] = test: microbe, parasite or virus in culture; assay type: cell-based, Staphylococcus aureus; details: isolate 2468, 24 h
Protocol: as §1

MRSA isolate 1096 = test: microbe, parasite or virus in culture; assay type: cell-based, Staphylococcus aureus; details: isolate 1096, 24 h
Protocol: as §1

[3] = system: S. aureus TISTR 517 and MRSA strains; test: microbe, parasite or virus in culture; assay type: cell-based, Staphylococcus aureus; details: TISTR 517 and strains, 18 h
Protocol: as §1

S. aureus TISTR 517 [4] = test: Thermal, surfactant and pH stability, remaining activity by agar well diffusion; assay type: physicochemical, Staphylococcus aureus; details: for % Remaining Activity: P1 15 μg/mL, vancomycin 300 μg/mL, mean ± SD, n=3
Protocol: (§2) The antimicrobial activity was measured by an agar well diffusion test with some modified methods. In brief, single colonies of the tested strains were suspended in 0.85% NaCl, and then the OD at 625 nm was adjusted to 0.1. The cell suspensions were spread on MH agar, and the tested samples (100 μL) were introduced into each well before incubation at 37 °C for 24 h. Each experiment was performed in three independent replicates, and the inhibition zone was measured and expressed as mean ± SD.
(§3) The stability of the anti-MRSA peptide against several conditions was studied. […] The sensitivity of the peptide sample to proteolytic enzymes was investigated by incubating the sample with proteinase K, trypsin, and α-chymotrypsin (1 mg/mL) for 1 h. Surfactant compatibility of the substance was examined by incubating the sample with 1% SDS and 1% Triton X-100 for 1 h (AppliChem GmbH, Darmstadt, Germany). The acid and base hydrolysis property of the substance was assessed by pH adjustment to 2–14 for 1 h before the samples were neutralized to pH 7. After all treatments, the antimicrobial assay by agar well diffusion against S. aureus TISTR 517 and MRSA isolate 2468 was performed in three independent experiments. The stability profiles were presented as the percentage of activity relative to the untreated condition (mean ± SD), and significant difference was determined by the Student’s t-test at a p-value < 0.05.

MRSA isolate 2468 [5] = test: as above; assay type: physicochemical, Staphylococcus aureus; details: P1 15 μg/mL, vancomycin 300 μg/mL, mean ± SD, n=3
Protocol: as §2, §3

S. aureus TISTR 517 [6] = test: Proteolytic enzyme stability, remaining activity by agar well diffusion; assay type: in vitro ADME, Staphylococcus aureus; details: proteinase K, trypsin, α-chymotrypsin, both test strains
Protocol: as §2
as §3, with “After all treatments, the antimicrobial assay by agar well diffusion against S. aureus TISTR 517 and MRSA isolate 2468 was performed in three independent experiments.” left out

MRSA isolate 2468 [7] = test: Agar well diffusion, arbitrary activity of purification fractions; assay type: cell-based, Staphylococcus aureus; details: 2-fold dilutions, AU per mg total protein
Protocol: Eight milliliters of the SPR-20 starter culture was added to 392 mL of Luria–Bertani (LB) broth (Titan Biotech Ltd., Rajasthan, India) in a 2 L flask. The culture was incubated at 30 °C and 150 rpm for 24 h before the crude supernatant was collected by centrifugation at 10,000× g and 4 °C for 15 min. Ammonium sulfate at 75% of saturation was added to the supernatant, and the precipitate was desalted by dialysis using a 3.5 kDa molecular weight cut-off (MWCO) SnakeSkin membrane (Pierce, Rockford, IL, USA) in the dialysis buffer (50 mM ammonium acetate pH 5.0 and 50 mM NaCl) at 4 °C for 16 h. The sample solution was purified by a HiTrap SP column under the elution gradient of buffer A (50 mM ammonium acetate pH 5.0 and 50 mM NaCl) and buffer B (50 mM ammonium acetate pH 5.0 and 1 M NaCl). The flow rate was set at 3 mL/min, and the wavelength was monitored at 214 nm. […] The peak was detected at 214 nm. […] The active fractions obtained from each purification step were prepared at different concentrations using 2-fold dilution, and the antimicrobial activity against MRSA isolate 2468 was determined by agar well diffusion assay.
The antimicrobial activity was measured by an agar well diffusion test with some modified methods. […] Each experiment was performed in three independent replicates, and the inhibition zone was measured and expressed as mean ± SD.

[8] = 60 °C, 1 h, % of untreated sample
[9] = 80 °C, 1 h, % of untreated sample
[10] = 100 °C, 1 h, % of untreated sample
[11] = […], 15 psi, 15 min (autoclave), % of untreated sample
[12] = pH 2, 1 h, then neutralized to pH 7
[13] = pH 4, 1 h, then neutralized to pH 7
[14] = pH 5, 1 h, then neutralized to pH 7
[15] = pH 6, 1 h, then neutralized to pH 7
[16] = pH 8, 1 h, then neutralized to pH 7
[17] = pH 9, 1 h, then neutralized to pH 7
[18] = pH 11, 1 h, then neutralized to pH 7
[19] = pH 12, 1 h, then neutralized to pH 7
[20] = pH 13, 1 h, then neutralized to pH 7
[21] = pH 14, 1 h, then neutralized to pH 7
[22] = sample + 1% SDS, 1 h, % of untreated sample
[23] = sample + 1% Triton X-100, 1 h, % of untreated sample

Question: Which results are given for VVVNVLVKVLPPPVV [Peptide P1]?
Answer: MBC (MRSA isolate 142): 4 µg/mL; MIC (MRSA isolate 142): 2 µg/mL; MBC (S. aureus TISTR 517 [1]): 4 µg/mL; MIC (S. aureus TISTR 517 [1]): 2 µg/mL; MBC (MRSA isolate 2468 [2]): 4 µg/mL; MIC (MRSA isolate 2468 [2]): 2 µg/mL; MBC (MRSA isolate 1096): 4 µg/mL; MIC (MRSA isolate 1096): 2 µg/mL; MIC [3]: 1.27 µM; % Remaining Activity (S. aureus TISTR 517 [4]; [8]): 100.49 ± 0.84%; % Remaining Activity (S. aureus TISTR 517 [4]; [9]): 100.00 ± 0.84%; % Remaining Activity (S. aureus TISTR 517 [4]; [10]): 100.00 ± 0.84%; % Remaining Activity (S. aureus TISTR 517 [4]; [11]): 98.54 ± 1.69%; % Remaining Activity (S. aureus TISTR 517 [4]; [12]): 98.48 ± 3.17%; % Remaining Activity (S. aureus TISTR 517 [4]; [13]): 97.97 ± 5.77%; % Remaining Activity (S. aureus TISTR 517 [4]; [14]): 97.46 ± 2.64%; % Remaining Activity (S. aureus TISTR 517 [4]; [15]): 97.97 ± 3.17%; % Remaining Activity (S. aureus TISTR 517 [4]; pH 7, 1 h): 97.97 ± 1.76%; % Remaining Activity (S. aureus TISTR 517 [4]; [16]): 102.54 ± 3.17%; % Remaining Activity (S. aureus TISTR 517 [4]; [17]): 100.00 ± 1.49%; % Remaining Activity (S. aureus TISTR 517 [4]; [18]): 98.01 ± 2.28%; % Remaining Activity (S. aureus TISTR 517 [4]; [19]): 96.52 ± 2.28%; % Remaining Activity (S. aureus TISTR 517 [4]; [20]): 98.51 ± 1.49%; % Remaining Activity (S. aureus TISTR 517 [4]; [21]): 101.00 ± 1.72%; % Remaining Activity (S. aureus TISTR 517 [4]; [22]): 114.49 ± 3.53 %; % Remaining Activity (S. aureus TISTR 517 [4]; [23]): 125.23 ± 2.92 %; activity remaining under several stress conditions (S. aureus TISTR 517 [4]; text summary of Table 6, both test strains): over 90%; % Remaining Activity (MRSA isolate 2468 [5]; [8]): 100.00 ± 0.79%; % Remaining Activity (MRSA isolate 2468 [5]; [9]): 99.08 ± 0.00%; % Remaining Activity (MRSA isolate 2468 [5]; [10]): 98.62 ± 0.79%; % Remaining Activity (MRSA isolate 2468 [5]; [11]): 98.62 ± 0.79%; % Remaining Activity (MRSA isolate 2468 [5]; [12]): 97.57 ± 1.46%; % Remaining Activity (MRSA isolate 2468 [5]; [13]): 99.03 ± 1.46%; % Remaining Activity (MRSA isolate 2468 [5]; [14]): 97.09 ± 1.68%; % Remaining Activity (MRSA isolate 2468 [5]; [15]): 97.57 ± 3.85%; % Remaining Activity (MRSA isolate 2468 [5]; pH 7, 1 h): 97.57 ± 5.25%; % Remaining Activity (MRSA isolate 2468 [5]; [16]): 97.09 ± 2.22%; % Remaining Activity (MRSA isolate 2468 [5]; [17]): 98.03 ± 1.71%; % Remaining Activity (MRSA isolate 2468 [5]; [18]): 98.03 ± 2.26%; % Remaining Activity (MRSA isolate 2468 [5]; [19]): 97.54 ± 0.00%; % Remaining Activity (MRSA isolate 2468 [5]; [20]): 99.51 ± 0.85%; % Remaining Activity (MRSA isolate 2468 [5]; [21]): 100.00 ± 3.08%; % Remaining Activity (MRSA isolate 2468 [5]; [22]): 117.13 ± 1.60 %; % Remaining Activity (MRSA isolate 2468 [5]; [23]): 115.74 ± 0.80 %; activity when incubated with proteolytic enzymes (S. aureus TISTR 517 [6]): more than 90%; Specific Activity (MRSA isolate 2468 [7]): 1694 AU/mg
